In patent US9120839B2, “Ursolic acid derivative and method for preparing same” (Nexoligo Co., Ltd., priority 2012, dated 2015):
Like-named read-outs stand apart in the source and are kept apart here.

Legend:
[1] = background statement on ursolic acid; cited from earlier work
[2] = Pharmacokinetic animal test on Sprague Dawley (SD) rat, ursolic acid concentration in blood plasma; assay type: in vivo; conditions: male, intravenous administration, dose 0.5 (mg/kg per Table 1), SD rats
Protocol: Pharmacokinetic Animal Test on Sprague Dawley (SD) Rat, Using Ursolic Acid and Ursolic Acid Derivatives of Examples
• Ursolic acid derivative of Examples (5-methyl-2-oxo-1,3-dioxole-4-yl)methyl 3β-hydroxyl-urs-12-en-28-oate was used.
The ursolic acid was single-intravenously administered on SD rats and the ursolic acid derivative of Example 2 was orally administered, then blood collection was performed each time, and concentration of the test substance in blood was analyzed. Accordingly, bioavailability of the ursolic acid and ursolic acid derivatives of Examples were measured and compared with each other.
i) Control substance (Intravenous Administration): Ursolic Acid (UA) (HPLC purity of 99.0% or more/area percentage)
ii) Test substance (Oral Administration) Ursolic acid derivative of Example 2 (HPLC purity of 99.4% or more/area percentage)
The control substance for intravenous administration was diluted with 0.9% saline which was sterilized and sealed to be prepared in 0.5 mg/mL. […]
(3) Calculation of Injection Amount: The injection amount was calculated to be 1.0 or 2.0 mL/kg, on the basis of the recently measured body weight before the administration. […]
Concentration of ursolic acid in the blood plasma of the rats was measured. […]

[3] = rats, from Paper 1; cited from earlier work

Row | AUC(0-t) [2] | Cmax [2] | SMILES | oral absorptivity [1] | oral absorptivity [3]
1 | 114 ng·h/mL | 378 ng/mL | C[C@H]1[C@H](C)CC[C@]2(C(=O)O)CC[C@]3(C)C(=CC[C@@H]4[C@@]5(C)CC[C@H](O)C(C)(C)[C@@H]5CC[C@]43C)[C@H]12 [Ursolic Acid, 3β-hydroxy-urs-12-en-28-oic acid] | less than 1% | 
2 |  |  | CC1(C)CC[C@]2(C(=O)O)CC[C@]3(C)C(=CC[C@@H]4[C@@]5(C)CC[C@H](O)C(C)(C)[C@@H]5CC[C@]43C)[C@@H]2C1 [oleanolic acid] |  | about 0.7%
